Patent US12397023B2, “Composition comprising Lactococcus chungangensis for prevention or treatment of fatty liver or metabolic syndrome” (CHUNG ANG UNIVERSITY INDUSTRY ACADEMIC COOPERATION …, priority 2018, dated 2025)

Tested on: HFD-induced obese mice
Assay: Serum lipids (TC, TG, HDL, LDL)
Format: in vivo, C57BL/6J mouse
Conditions: 12 weeks, mean ± SEM
Protocol: During the experimental period, the experimental group had free access to diet and drinking water. […] The same volume of PBS was administered to the negative control group and the positive control group. […] All mice were gavaged once a week for 12 weeks.
Blood samples were collected after 12 weeks of treatment from two mice from each experimental group in centrifuge tubes containing EDTA. Blood was drawn by puncturing the orbit through the orbit and within the orbit. Samples were centrifuged at 1200× for 15 minutes and incubated at 4° C. for 10 minutes. Serum aspartate aminotransferase (AST), alanine aminotransferase (ALT), TC, high-density lipoprotein (HDL), low-density lipoprotein (LDL) and TG were analyzed in the serum supernatant using an appropriate assay kit (Green Cross Biopharmaceutical, Yongin, Korea). The same samples were also used for hormone measurements.

In the case of CCC(C)(C)C(=O)O[C@H]1C[C@@H](C)C=C2C=C[C@H](C)[C@H](CC[C@@H]3C[C@@H](O)CC(=O)O3)[C@H]21 [Simvastatin], the TC is reported as 51.50 ± 1.50 mg/dL and the TG is reported as 30.00 ± 5.00 mg/dL.
